The record followed here is patent publication US10144732B2 (BIOGEN MA INC., priority 2014, dated 2018).

Structures are written as SMILES. Where “and” joins values, the source holds several entries; their conditions need not be identical. Equal entries are not always repeated. Structures can show the parent of a compound that is named as a salt. Where only a bound is given, the exact number is not on record here.

The target in one assay is T1, Human ATX protein (Homo sapiens, UniProt Q13822).
T1 construct: made in house
In words: ATX biochemical assay (FRET, FS-3 substrate). To be noted: FRET assay, FS-3 2 μM, ATX 1.0 μg/mL, 30 minutes preincubation, 2 hours reaction at room temperature; read-out: IC50. An outline of the steps: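 FRET read-out: cleavage of FS-3 (2 μM final) unquenches fluorescein, measured at 485/538 nm after 2 h at room temperature. Before substrate addition, in-house-expressed human autotaxin (1.0 μg/mL) sat with compound for 30 min in pH 7.4 Tris/NaCl/KCl/CaCl2/MgCl2 buffer containing fatty acid free-BSA at 1 mg/mL.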
Usually IC50 stands for the concentration at which inhibition is half-maximal. For `O=C(CCc1nnn[nH]1)N1CCc2c(C(F)(F)F)nn(Cc3ccc(Cl)cc3F)c2C1` [Example 1-31, 1-(1-(4-Chloro-2-fluorobenzyl)-3-(trifluoromethyl)-4,5-dihydro-1H-pyrazolo[3,4-c]pyridin-6(7H)-yl)-3-(1H-tetrazol-5-yl)propan-1-one], the IC50 was at most 100 nM.
The same measure, in the same setting: the same measure for `CCCC1CC(CC(=O)N2CCc3c(C(F)(F)F)nn(Cc4ccc(F)cc4)c3C2)CCN1` (centres unmarked) [Example 9-12, 1-(1-(4-Fluorobenzyl)-3-(trifluoromethyl)-4,5-dihydro-1H-pyrazolo[3,4-c]pyridin-6(7H)-yl)-2-(2-propylpiperidin-4-yl)ethanone acid TFA salt]: at most 100 nM.
Still for that read-out and setting: as for `O=C(C[C@H]1CC[C@H](C(=O)O)CC1)N1CCc2c(-c3ccccc3)nn(Cc3ccc(F)cc3)c2C1` [Example 5-39, trans-4-(2-(1-(4-Fluorobenzyl)-3-phenyl-4,5-dihydro-1H-pyrazolo[3,4-c]pyridin-6(7H)-yl)-2-oxoethyl)cyclohexanecarboxylic acid], the figure is at most 100 nM; as for `O=C(O)C1CCC(CC(=O)N2CCc3cnn(Cc4ccc(F)cc4)c3C2)CC1` (single isomer, unassigned) [Example 7-15, 4-(2-(1-(4-Fluorobenzyl)-4,5-dihydro-1H-pyrazolo[3,4-c]pyridin-6(7H)-yl)-2-oxoethyl)cyclohexanecarboxylic acid], at most 100 nM.
As to `O=C(O)CCN1CCC(C(=O)N2CCc3c(C(F)(F)F)nn(Cc4ccc(F)cc4)c3C2)C1` (centres unmarked) [Example 15-2, 3-(3-(1-(4-Fluorobenzyl)-3-(trifluoromethyl)-4,5,6,7-tetrahydro-1H-pyrazolo[3,4-c]pyridine-6-carbonyl)pyrrolidin-1-yl)propanoic acid TFA salt], the IC50 lay within 100 to 250 nM.
Still for that read-out and setting: the same measure for `CC1(C)C(CC(=O)N2CCc3c(C(F)(F)F)nn(Cc4ccc(Cl)cc4F)c3C2)CC1C(=O)O` (mixture of isomers) [Example 6-14, 3-(2-(1-(4-Chloro-2-fluorobenzyl)-3-(trifluoromethyl)-4,5-dihydro-1H-pyrazolo[3,4-c]pyridin-6(7H)-yl)-2-oxoethyl)-2,2-dimethylcyclobutanecarboxylic acid]: at most 100 nM; for `CCOC(=O)[C@H]1CC[C@H](CC(=O)N2CCc3c(C(N)=O)nn(Cc4ccc(F)cc4)c3C2)CC1` [Example 1-42, trans-Ethyl 4-(2-(3-carbamoyl-1-(4-fluorobenzyl)-4,5-dihydro-1H-pyrazolo[3,4-c]pyridin-6(7H)-yl)-2-oxoethyl)cyclohexanecarboxylate]: > 500 nM and ≤ 10000 nM.
`CCOC(=O)C1CCC(CC(=O)N2CCc3c(C(F)(F)F)nn(Cc4cccc(F)c4)c3C2)CC1` (centres unmarked) [Example 1-18, Ethyl 4-(2-(1-(3-fluorobenzyl)-3-(trifluoromethyl)-4,5-dihydro-1H-pyrazolo[3,4-c]pyridin-6(7H)-yl)-2-oxoethyl)cyclohexanecarboxylate]: the IC50 was at most 100 nM.
On the same count and under the same terms, as for `O=C(C[C@H]1CC[C@H](C(=O)O)CC1)N1CCc2c(C(F)(F)F)nn(Cc3cccs3)c2C1` [Example 5-26, trans-4-(2-Oxo-2-(1-(thiophen-2-ylmethyl)-3-(trifluoromethyl)-4,5-dihydro-1H-pyrazolo[3,4-c]pyridin-6(7H)-yl)ethyl)cyclohexanecarboxylic acid], the figure is at most 100 nM; as for `O=C(C[C@H]1CC[C@H](C(=O)O)CC1)N1CCc2c(C(F)(F)F)nn(Cc3ccc(Cl)cc3F)c2C1` [Example 5-1, trans-4-(2-(1-(4-Chloro-2-fluorobenzyl)-3-(trifluoromethyl)-4,5-dihydro-1H-pyrazolo[3,4-c]pyridin-6(7H)-yl)-2-oxoethyl)cyclohexanecarboxylic acid], at most 100 nM; as for `CC1(C)C(NCC(=O)N2CCc3c(C(F)(F)F)nn(Cc4ccc(F)cc4)c3C2)CC1C(=O)O` (centres unmarked) [Example 13-14, 3-((2-(1-(4-Fluorobenzyl)-3-(trifluoromethyl)-4,5-dihydro-1H-pyrazolo[3,4-c]pyridin-6(7H)-yl)-2-oxoethyl)amino)-2,2-dimethylcyclobutanecarboxylic acid TFA salt], at most 100 nM.
The same measure, in the same setting: as for `CCOC(=O)CCNCC(=O)N1CCc2c(C(F)(F)F)nn(Cc3ccc(F)cc3)c2C1` [Example 12-9, Ethyl 3-(2-(1-(4-fluorobenzyl)-3-(trifluoromethyl)-4,5-dihydro-1H-pyrazolo[3,4-c]pyridin-6(7H)-yl)-2-oxoethylamino)propanoate], the figure is over 10000 nM; as for `O=C(O)CCCC(=O)N1CCc2c(C(F)(F)F)nn(Cc3ccc(Cl)cc3F)c2C1` [Example 14-2, 5-(1-(4-Chloro-2-fluorobenzyl)-3-(trifluoromethyl)-4,5-dihydro-1H-pyrazolo[3,4-c]pyridin-6(7H)-yl)-5-oxopentanoic acid], at most 100 nM.
Still for that read-out and setting: as for `CC1(C)C(NCC(=O)N2CCc3c(C(F)(F)F)nn(Cc4ccc(Cl)cc4F)c3C2)CC1C(=O)O` (centres unmarked) [Example 13-11, 3-((2-(1-(4-Chloro-2-fluorobenzyl)-3-(trifluoromethyl)-4,5-dihydro-1H-pyrazolo[3,4-c]pyridin-6(7H)-yl)-2-oxoethyl)amino)-2,2-dimethylcyclobutanecarboxylic acid TFA salt], the figure is at most 100 nM; as for `COC(=O)C1CCN(CC(=O)N2CCc3c(C(F)(F)F)nn(Cc4ccc(F)cc4)c3C2)CC1` [Example 12-1, Methyl 1-(2-(1-(4-fluorobenzyl)-3-(trifluoromethyl)-4,5-dihydro-1H-pyrazolo[3,4-c]pyridin-6(7H)-yl)-2-oxoethyl)piperidine-4-carboxylate], at most 100 nM; as for `O=C(C[C@H]1CC[C@H](C(=O)O)CC1)N1CCc2c(C(F)(F)F)nn(Cc3ccc(F)c(F)c3)c2C1` [Example 5-31, trans-4-(2-(1-(3,4-Difluorobenzyl)-3-(trifluoromethyl)-4,5-dihydro-1H-pyrazolo[3,4-c]pyridin-6(7H)-yl)-2-oxoethyl)cyclohexanecarboxylic acid], at most 100 nM.
For the molecule `CC1(C)C(CC(=O)N2CCc3c(C(F)(F)F)nn(Cc4ccc(F)cc4)c3C2)CC1C(=O)O` (mixture of isomers) [Example 6-15, 3-(2-(1-(4-Fluorobenzyl)-3-(trifluoromethyl)-4,5-dihydro-1H-pyrazolo[3,4-c]pyridin-6(7H)-yl)-2-oxoethyl)-2,2-dimethylcyclobutanecarboxylic acid], the IC50 was at most 100 nM.
Take `O=C(C[C@H]1CC[C@@H](C(=O)O)CC1)N1CCc2c(C(F)(F)F)nn(Cc3ccc(Cl)s3)c2C1` [Example 5-25, cis-4-(2-(1-((5-Chlorothiophen-2-yl)methyl)-3-(trifluoromethyl)-4,5-dihydro-1H-pyrazolo[3,4-c]pyridin-6(7H)-yl)-2-oxoethyl)cyclohexanecarboxylic acid]: the IC50 is at most 100 nM.
For `O=C(C[C@H]1CC[C@H](C(=O)O)CC1)N1CCc2c(C(F)(F)F)nn(Cc3ccccn3)c2C1` [Example 5-23, trans-4-(2-Oxo-2-(1-(pyridin-2-ylmethyl)-3-(trifluoromethyl)-4,5-dihydro-1H-pyrazolo[3,4-c]pyridin-6(7H)-yl)ethyl)cyclohexanecarboxylic acid], the IC50 is 100 to 250 nM.
Consider `O=C(O)C1CCN(CC(=O)N2CCc3c(C(F)(F)F)nn(Cc4ccc(F)cc4)c3C2)C1` (centres unmarked) [Example 13-12, 1-(2-(1-(4-Fluorobenzyl)-3-(trifluoromethyl)-4,5-dihydro-1H-pyrazolo[3,4-c]pyridin-6(7H)-yl)-2-oxoethyl)pyrrolidine-3-carboxylic acid], for which the IC50 was at most 100 nM.
The same measure, in the same setting: the same measure for `O=C(C[C@H]1CC[C@@H](C(=O)O)CC1)N1CCc2c(C(F)(F)F)nn(Cc3ccc(F)cc3F)c2C1` [Example 5-34, cis-4-(2-(1-(2,4-Difluorobenzyl)-3-(trifluoromethyl)-4,5-dihydro-1H-pyrazolo[3,4-c]pyridin-6(7H)-yl)-2-oxoethyl)cyclohexanecarboxylic acid]: at most 100 nM; for `O=C(O)CCNCC(=O)N1CCc2c(C(F)(F)F)nn(Cc3ccc(F)cc3)c2C1` [Example 13-16, 3-(2-(1-(4-Fluorobenzyl)-3-(trifluoromethyl)-4,5-dihydro-1H-pyrazolo[3,4-c]pyridin-6(7H)-yl)-2-oxoethylamino)propanoic acid TFA salt]: at most 100 nM.
Same read-out and setting: as for `CCOC(=O)C1CCC(CC(=O)N2CCc3cnn(Cc4ccc(Cl)cc4F)c3C2)CC1` (centres unmarked) [Example 1-4, Ethyl 4-(2-(1-(4-chloro-2-fluorobenzyl)-4,5-dihydro-1H-pyrazolo[3,4-c]pyridin-6(7H)-yl)-2-oxoethyl)cyclohexanecarboxylate], the figure is at most 100 nM; as for `CCOC(=O)[C@H]1CC[C@H](CC(=O)N2CCc3c(C(F)(F)F)nn(CCc4ccccc4)c3C2)CC1` [Example 1-28, trans-Ethyl 4-(2-oxo-2-(1-phenethyl-3-(trifluoromethyl)-4,5-dihydro-1H-pyrazolo[3,4-c]pyridin-6(7H)-yl)ethyl)cyclohexanecarboxylate], 100 to 250 nM.
As for `CC(C)(C)OC(=O)N1CCC(CC(=O)N2CCc3c(C(F)(F)F)nn(Cc4ccc(Cl)cc4F)c3C2)CC1(C)C` (centres unmarked) [Example 8-6, tert-Butyl 4-(2-(1-(4-chloro-2-fluorobenzyl)-3-(trifluoromethyl)-4,5-dihydro-1H-pyrazolo[3,4-c]pyridin-6(7H)-yl)-2-oxoethyl)-2,2-dimethylpiperidine-1-carboxylate], the IC50 was at most 100 nM.

Still in this assay, the particulars now being: IC50, FRET assay, FS-3 2 μM, ATX 1.0 μg/mL, 30 minutes preincubation, 2 hours reaction at room temperature.
As for `COC(=O)C1CC2CCC(C1)N2CC(=O)N1CCc2c(C(F)(F)F)nn(Cc3ccc(Cl)cc3F)c2C1` (centres unmarked) [Example 12-4, Methyl 8-(2-(1-(4-chloro-2-fluorobenzyl)-3-(trifluoromethyl)-4,5-dihydro-1H-pyrazolo[3,4-c]pyridin-6(7H)-yl)-2-oxoethyl)-8-azabicyclo[3.2.1]octane-3-carboxylate], the IC50 was at most 100 nM.
